According to article PMC11054303, “Design and Synthesis of Novel N-Benzylidene Derivatives of 3-Amino-4-imino-3,5-dihydro-4H-chromeno[2,3-d]pyrimidine under Microwave, In Silico ADME Predictions, In Vitro Antitumoral Activities and In Vivo Toxicity” (Pharmaceuticals, 2024):

Legend:
Caco2 = test: Antiproliferative assay, Caco2; format: cell-based, human; settings: Homo sapiens, Caco-2; 48 h incubation; average of three assays, standard error ± 0.5 μM
Description: (§1) The potential antiproliferative activity of these novel 3-(N-phenylmethyliden)amino-4-imino-3,5-dihydro-4H-chromeno[2,3-d]pyrimidine 10(a-i) and 10-(N-phenylmethyliden)amino-11-imino-11H-naphto[1′,2′:5,6]pyrano[2,3-d]pyrimidine 10(j-l) was evaluated in a panel of eight tumoral cell lines and in diploid skin fibroblasts used as normal cell lines for control. For these antitumor assays, chosen cell lines represent diverse types of human cancer, which are, respectively, human hepatocellular carcinoma (Huh7 D12), human colon adenocarcinoma (Caco2), human breast adenocarcinoma (MDA-MB231), MDA-MB468 for human breast carcinoma which correspond to the Triple Negative Breast Cancer (TNBC), human colon carcinoma (HCT116), PC3 as cell line initiated from bone metastasis of grade IV prostatic adenocarcinoma from a person, MCF7 as breast cancer line isolated from a person and PANC1, as human pancreatic cancer cell line. The potential antiproliferative activity was preliminarily evaluated in vitro at a 25 μM single dose.
(§2) The IC50 was calculated from the full dose-response curve and used as a parameter for the antiproliferative activity of the new compounds.
(§3) Skin diploid fibroblastic cells were provided by BIOPREDIC International Company (Rennes, France). Huh-7D12 (Ref ECACC: 01042712), Caco2 (Ref ECACC: 86010202), MDA-MB-231 (Ref ECACC: 92020424), MDA-MB-468, HCT-116 (Ref ECACC: 91091005), PC3 (Ref ECACC: 90112714), and MCF7 cell lines were obtained from the ECACC collection. PANC1 cell lines, a generous gift of LBAI Inserm 1227 (Brest, France). Cells were grown according to ECACC recommendations in DMEM for Huh-D12, MDA-MB-231, MDA-MB-468 and fibroblast, in EMEM for Caco2, in McCoy’s for HCT-116 and RPMI for PC3 at 37 °C and 5% CO2. All culture media with 10% of FBS, 1% of penicillin-streptomycin and 2 mM glutamine.
(§4) Chemicals were solubilized in DMSO at a concentration of 10 mM (stock solution) and diluted in a culture medium to the desired final concentrations. […] The toxicity test of the chemicals on these cells was as follows: 2 × 10^3 cells for HCT-116 cells or 4 × 10^3 for the other cells were seeded in 96-multi-well plates in triplicate and left for 24 h for attachment, spreading and growing. Then, cells were exposed for 48 h to increasing concentrations of chemicals, ranging from 0.1 μM to 25 μM, in a final volume of 120 μL of culture medium. After 48 h of treatment, cells were washed in PBS and fixed in a cooled 90% ethanol/5% acetic acid solution for 20 min. The nuclei were stained with Hoechst 3342 (B2261 Merck Sigma-Aldrich) and counted. Image acquisition and analysis were performed using automated imaging analysis with a Cellomics Arrayscan VTI/HCS Reader (Thermo/Scientific, Waltham, MA, USA). The survival percentages were calculated as the percentage of cell number after chemical treatment over cell number after DMSO treatment. The IC50 was graphically determined.

MDA MB468 = test: Antiproliferative assay, MDA MB468; format: cell-based, human; settings: for IC50: Homo sapiens, MDA-MB-468, 48 h incubation, average of three assays, standard error ± 0.5 μM; for Selectivity Index (SI) MDA MB468: SI = IC50 fibroblasts/IC50 on MDA MB468
Description: as §1, §2, §3, §4

MDA MB231 = test: Antiproliferative assay, MDA MB231; format: cell-based, human; settings: for IC50: Homo sapiens, MDA-MB-231, 48 h incubation, average of three assays, standard error ± 0.5 μM; for Selectivity Index (SI) MDA MB231: SI = IC50 fibroblasts/IC50 on MDA MB231
Description: as §1, §2, §3, §4

PC3 = test: Antiproliferative assay, PC3; format: cell-based, human; settings: for IC50: Homo sapiens, PC-3, 48 h incubation, average of three assays, standard error ± 0.5 μM; for Selectivity Index (SI) PC3: SI = IC50 fibroblasts/IC50 on PC3
Description: as §1, §2, §3, §4

PANC1 = test: Antiproliferative assay, PANC1; format: cell-based, human; settings: for IC50: Homo sapiens, PANC-1, 48 h incubation, average of three assays, standard error ± 0.5 μM; for Selectivity Index (SI) PANC1: SI = IC50 fibroblasts/IC50 on PANC1
Description: as §1, §2, §3, §4

MCF7 = test: Antiproliferative assay, MCF7; format: cell-based, human; settings: for IC50: Homo sapiens, MCF7, 48 h incubation, average of three assays, standard error ± 0.5 μM; for Selectivity Index (SI) MCF7: SI = IC50 fibroblasts/IC50 on MCF7
Description: as §1, §2, §3, §4

Fibroblasts = test: Antiproliferative assay, diploid skin fibroblasts (normal cells); format: cell-based; settings: for IC50: Fibroblast, 48 h incubation, average of three assays, standard error ± 0.5 μM
Description: as §1, §2, §3, §4

Huh7 D12 = test: Antiproliferative assay, Huh7 D12; format: cell-based, human; settings: for IC50: Homo sapiens, Huh-7D12, 48 h incubation, average of three assays, standard error ± 0.5 μM; for Selectivity Index (SI) Huh7 D12: SI = IC50 fibroblasts/IC50 on Huh7 D12
Description: as §1, §2, §3, §4

HCT 116 = test: Antiproliferative assay, HCT 116; format: cell-based, human; settings: for IC50: Homo sapiens, HCT-116, 48 h incubation, average of three assays, standard error ± 0.5 μM; for Selectivity Index (SI) HCT 116: SI = IC50 fibroblasts/IC50 on HCT 116
Description: as §1, §2, §3, §4

[1] = Antiproliferative assay, Caco2; format: cell-based, human; settings: human, Caco-2; SI = IC50 fibroblasts/IC50 on Caco2; read-out: Selectivity Index (SI) Caco2
Description: as §1, §2, §3, §4

tumor cell lines = test: Antiproliferative assay, panel of tumoral cell lines; format: cell-based; settings: Homo sapiens, 48 h, summary over tumoral cell lines of Table 3, 48 h; read-out: IC50 on tumor cell lines (span over the panel)
Description: as §1, §2, §3, §4

[2] = test system: zebrafish Danio rerio embryos; test: Zebrafish embryo toxicity assay (Zebratox, FET)
Description: Fertilized eggs at 24–48 h post-fertilization (hpf) were selected and transferred to a 96-well plate (1 embryo/well). […] DMSO (0.6%) was used as vehicle control for the test compounds. The exposure duration continued up to 72 hpf because it is the endpoint of embryonic development [41]. The dead embryos were eliminated, and the fertilized eggs were imaged at 0, 24, 48 and 72 hpf.
Eggs were collected 2 h post-fertilization (hpf) and kept in glass Petri dishes containing water for subsequent examination under a binocular microscope to confirm fertilization. […] Chemical treatments were performed by adding DMSO alone (negative control), or test molecule. These experiments were performed in four technical replicates.
The experiments were performed using a Zeiss inverted fluorescent microscope (Observer Z1). The zebrafish toxicological test (Zebratox) was realized as follows: the 24 h post-fertilization embryos were arrayed by hand with one embryo per well in black-walled 96-well microplates for fluorescence assays (Perkin Elmer, Waltham, MA, USA). The embryos were treated before hatching from 0 to 72 h post-fertilization. The 20 mM DMSO stock chemicals were diluted in fish water and added to the wells at final concentrations from 0.0 2µM to 5 μM. The negative control (0.25% DMSO) was added to each replicate plate. The experiments were realized in triplicate in three independent plates. […] The zebrafish fertilized eggs were provided by the ImPACcell-Biosit Zebrafish facilities (Rennes, France).

Row | Compound | IC50 (Caco2) [µM] | IC50 (MDA MB468) [µM] | IC50 (MDA MB231) [µM] | IC50 (PC3) [µM] | IC50 (PANC1) [µM] | IC50 (MCF7) [µM] | IC50 (Fibroblasts) [µM] | IC50 (Huh7 D12) [µM] | IC50 (HCT 116) [µM] | selectivity ratio at 48 h [1] | Selectivity Index (SI) MDA MB468 (MDA MB468) | Selectivity Index (SI) MDA MB231 (MDA MB231) | Selectivity Index (SI) PC3 (PC3) | Selectivity Index (SI) PANC1 (PANC1) | Selectivity Index (SI) MCF7 (MCF7) | effect on fibroblasts (healthy skin cell), in words (Fibroblasts) | IC50 (tumor cell lines) [µM] | Selectivity Index (SI) Huh7 D12 (Huh7 D12) | Selectivity Index (SI) HCT 116 (HCT 116) | further results
1 | CCN(CC)c1ccc2c(c1)Oc1ncn(/N=C/c3ccc(N(C)C)cc3)c(=N)c1C2 [10a] | > 25 | > 25 | > 25 | > 25 | > 25 | > 25 | > 25 | > 25 | > 25 |  |  |  |  |  |  |  |  |  |  | 
2 | CCN(CC)c1ccc2c(c1)Oc1ncn(/N=C/c3ccccc3O)c(=N)c1C2 [10b] | > 25 | > 25 | > 25 | > 25 | > 25 | > 25 | > 25 | > 25 | > 25 |  |  |  |  |  |  |  |  |  |  | 
3 | CCN(CC)c1ccc2c(c1)Oc1ncn(/N=C/c3ccccc3)c(=N)c1C2 [10c] | > 25 | > 25 | > 25 | > 25 | > 25 | > 25 | > 25 | > 25 | > 25 |  |  |  |  |  |  |  |  |  |  | 
4 | CN(C)c1ccc(/C=N/n2cnc3c(c2=N)Cc2ccccc2O3)cc1 [10d, (3E) 3-N-(4-Dimethylaminophenylmethylidene)amino-4-imino-3,5-dihydro-4H-chromeno[2,3-d]pyrimidine] | 10 | 11 | 11 | 11 | 17 | 11 | 14 | 11 | 11 | 1.4 | 1.27 | 1.27 | 1.27 | 0.82 | 1.27 | cytotoxic on fibroblasts | 1 to 25 | 1.27 | 1.27 | 
5 | N=c1c2c(ncn1/N=C/c1ccccc1O)Oc1ccccc1C2 [10e, (3E) 3-N-(2-Hydroxyphenylmethylidene)amino-4-imino-3,5-dihydro-4H-chromeno[2,3-d]pyrimidine] | 2 | 2.5 | 1.5 | 0.15 | 2.2 | 1.7 | 1.6 | 1.7 | 0.3 | 0.8 | 0.64 | 1.07 | 10.67 | 0.73 | 0.94 | cytotoxic on fibroblasts | 1 to 25 | 0.94 | 5.33 | 
6 | COc1cccc2c1Oc1ncn(/N=C/c3ccc(N(C)C)cc3)c(=N)c1C2 [10g, (3E) 3-N-(4-Dimethylaminophenylmethylidene)amino-4-imino-9-methoxy-3,5-dihydro-4H-chromeno[2,3-d]pyrimidine] | 10 | 18 | > 25 | 16 |  | 10 | 11 | 6 | 24 | 1.1 | 0.61 | < 0.44 | 0.69 |  | 1.1 | cytotoxic on fibroblasts | 1 to 25 | 1.83 | 0.46 | 
7 | CN(C)c1ccc(/C=N/n2cnc3c(c2=N)Cc2c(ccc4ccccc24)O3)cc1 [10j, (10E) 10-N-(4-Dimethylaminophenylmethylidene)amino-11-imino-11H-naphto[1′,2′:5,6]pyrano[2,3-d]pyrimidine] | 10 | 18 | > 25 | 16 |  | 10 | 11 | 6 | 24 | 1.1 | 0.61 | < 0.44 | 0.69 |  | 1.1 | cytotoxic on fibroblasts | 1 to 25 | 1.83 | 0.46 | 
8 | N=c1c2c(ncn1/N=C/c1ccccc1O)Oc1ccc3ccccc3c1C2 [10k, (10E) 10-N-(2-Hydroxyphenylmethylidene)amino-11-imino-11H-naphto[1′,2′:5,6]pyrano[2,3-d]pyrimidine] | 1.2 | 1.8 | 1.1 | 0.4 | 1.6 | 1.2 | 1.5 | 1.5 | 0.6 | 1.25 | 0.83 | 1.34 | 3.75 | 0.94 | 1.25 | cytotoxic on fibroblasts | 1 to 25 | 1 | 2.5 | 
9 | COc1cccc2c1C(=O)c1c(O)c3c(c(O)c1C2=O)C[C@@](O)(C(=O)CO)C[C@@H]3O[C@H]1C[C@H](N)[C@H](O)[C@H](C)O1 [Doxorubicin, reference compound] | 0.03 | 0.03 | 0.02 | 0.07 |  | 0.09 | 0.01 | 0.06 | 0.07 | 0.33 | 0.33 | 0.50 | 0.14 |  | 0.11 |  |  | 0.16 | 0.14 | 
10 | C#Cc1cccc(Nc2ncnc3cc(OCCOC)c(OCCOC)cc23)c1 [erlotinib, reference compound] |  |  |  |  |  |  |  |  |  |  |  |  |  |  |  |  |  |  |  | toxicity on zebrafish embryos ([2]; 1 μM dose, 72 hpf): no toxicity; hatching of the embryos ([2]; treatment for 48 and 72 hpf): complete hatching
